According to patent publication US20230041563A1, “N-(1,3,4-OXADIAZOL-2-YL)ARYLCARBOXAMIDES OR SALTS THEREOF, PREPARATION METHODS, HERBICIDAL COMPOSITIONS AND USES THEREOF” (priority 2018, published 2023):

Columns and labels:
[1] = test system: Abutilon theophrasti; assay: Weeding effect in post-emergence stage (greenhouse pot spray); assay type: in vivo; conditions: for Abutilon theophrasti (activity level): Table 3, dose 60 g a.i./ha
In short: (§1)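 Read-out: fresh-weight growth control rate scored 3 weeks after spraying, mean of three replicates. Plants treated at 2-3 leaf stage by spray tower, doses 500-15 g a.i./ha (500, 250, 125, 60, 15).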

[2] = test system: Digitaria sanguinalis; assay: as above; assay type: in vivo; conditions: for Digitaria sanguinahs (activity level): Table 3, dose 60 g a.i./ha
In short: as §1

[3] = test system: Echinochloa crusgalli; assay: as above; assay type: in vivo
In short: as §1

[4] = test system: Amaranthus retroflexus; assay: as above; assay type: in vivo
In short: as §1

[5] = test system: Stellaria media; assay: as above; assay type: in vivo
In short: as §1

[6] = test system: Echinochloa crusgali; assay: Transplanted rice safety evaluation and weed control effect evaluation in rice field; assay type: in vivo
Text: (§2) Transplanted rice safety evaluation and weed control effect evaluation in rice field:
(§3) Rice field soil was loaded into a 1/1,000,000 ha pot. The seeds of echinochloa crusgali, scirpus juncoides, Bidens tripartita, Sagittaria trifolia, Monochoria vaginalis and Leptochloa chinensis were sowed and gently covered with soil, then left to stand still in greenhouse in the state of 0.5-1 cm of water storage. The tuber of Sagittaria trifolia was planted in the next day or 2 days later. It was kept at 3-4 cm of water storage thereafter. The weeds were treated by dripping the WP or SC water diluents prepared according to the common preparation method of the compounds of the present invention with pipette homogeneously to achieve specified effective amount when echinochloa crusgali, scirpus juncoides, Bidens tripartita, Monochoria vaginalis and Leptochloa chinensis reached 0.5 leaf stage and Sagittaria trifolia reached the time point of primary leaf stage.
(§4) The fertility condition of echinochloa crusgali, scirpus juncoides, Bidens tripartita, Leptochloa chinensis, Sagittaria trifolia and Monochoria vaginalis 14 days after the treatment of the compound of the invention and the fertility condition of rice 21 days after the treatment of the compound of the invention respectively with the naked eye. Evaluate the weed control effect with 0-5 activity standard level. Many compounds show excellent activity and selectivity.

[7] = test system: Monochoria vaginalis; assay: as above; assay type: in vivo
Text: as §2, §3, §4

[8] = test system: Scirpus juncoides; assay: as above; assay type: in vivo; conditions: Table 7, dose 125 g a.i./ha, 14 days after treatment
Text: as §2, §3, §4

[9] = test system: Rice; assay: as above; assay type: in vivo, rice (japonica rice/Indica rice); conditions: Table 7, dose 125 g a.i./ha, 21 days after treatment
Experimental: as §2
In addition, the rice field soil that loaded into the 1/1,000,000 ha pot was leveled to keep water storage at 3-4 cm depth. The 3 leaf stage rice (japonica rice/Indica rice) was transplanted at 3 cm of transplanting depth the next day. The compound of the present invention was treated by the same way after 5 days of transplantation.
as §4

[10] = test system: Setaria viridis; assay: Weeding effect in post-emergence stage (greenhouse pot spray); assay type: in vivo; conditions: Table 3, dose 60 g a.i./ha
In short: as §1

[11] = test system: Indica rice (Huanghuazhan); assay: Safety test of control experiments on rice; assay type: in vivo; conditions: Dose 250 g a.i./ha
Text: (§5) The activity level criteria for plant damage (i.e., growth control rate) are as follows: Comparative Experiments: [table]

[12] = test system: Japonica rice (Huaidao No. 5); assay: Safety test of control experiments on rice; assay type: in vivo; conditions: Dose 250 g a.i./ha
Text: as §5

[13] = test system: rice and Echinochloa crusgali; assay: Herbicide selection index between rice and Echinochloa crusgali; assay type: in vivo; conditions: average dose causing 10% phytotoxicity to rice divided by average dose causing 90% control efficiency to Echinochloa crusgali
[14] = test system: Leptochloa chinensis; assay: Transplanted rice safety evaluation and weed control effect evaluation in rice field; assay type: in vivo; conditions: Table 8, 30 g a.i./ha
Text: as §2, §3, §4

[15] = test system: Sagittaria trifolia; assay: as above; assay type: in vivo; conditions: Table 8, 30 g a.i./ha
Text: as §2, §3, §4

[16] = test system: weeds; assay: Actual control effects and combined effects of mixtures of active ingredients (i) and (ii), stem-leaf treatment, Gowing method; assay type: in vivo; conditions: Cyperus difformis, 20 days
[17] = Table 7, dose 125 g a.i./ha, 14 days after treatment

Compound	Echinochloa crusgali (activity level) [6, 17]	Monochoria vaginalis (activity level) [7, 17]	Scirpus juncoides (activity level) [8]	Rice (safety level) [9]	Abutilion theophrasti (activity level) ([1]; Table 2, dose 125 g a.i./ha)	Digitaria sanguinalis (activity level) ([2]; Table 2, dose 125 g a.i./ha)	Echinochloa crusgah (activity level) ([3]; Table 2, dose 125 g a.i./ha)	Amaranthus retroflexus (activity level) ([4]; Table 2, dose 125 g a.i./ha)	Stellaria media (activity level) ([5]; Table 2, dose 125 g a.i./ha)	Indica rice (Huanghuazhan) (plant damage level) [11]	Japonica rice (Huaidao No. 5) (plant damage level) [12]	Selection index between rice and Echinochloa crusgali [13]	further results
Cc1nnc(NC(=O)c2ccc(C(F)(F)F)c([S+]([O-])C(C)C)c2F)o1 (racemic) [Compound 1-11]	5 (Level 5: growth control rate is above 85%)	5 (Level 5: growth control rate is above 85%)	5 (Level 5: growth control rate is above 85%)	0 (Level 0: growth control rate is less than 5%)									Abutilion theophrasti (activity level) ([1]; Table 2, dose 250 g a.i./ha): 5 (Level 5: growth control rate is above 85%); Digitaria sanguinalis (activity level) ([2]; Table 2, dose 250 g a.i./ha): 5 (Level 5: growth control rate is above 85%); Echinochloa crusgah (activity level) ([3]; Table 2, dose 250 g a.i./ha): 5 (Level 5: growth control rate is above 85%); Amaranthus retroflexus (activity level) ([4]; Table 2, dose 250 g a.i./ha): 5 (Level 5: growth control rate is above 85%); Stellaria media (activity level) ([5]; Table 2, dose 250 g a.i./ha): 5 (Level 5: growth control rate is above 85%)
CCCC[S+]([O-])c1c(C(F)(F)F)ccc(C(=O)Nc2nnc(C)o2)c1F (racemic) [Compound 1-14]	5 (Level 5: growth control rate is above 85%)	5 (Level 5: growth control rate is above 85%)	5 (Level 5: growth control rate is above 85%)	0 (Level 0: growth control rate is less than 5%)	5 (Level 5: growth control rate is above 85%)	5 (Level 5: growth control rate is above 85%)	5 (Level 5: growth control rate is above 85%)	5 (Level 5: growth control rate is above 85%)	5 (Level 5: growth control rate is above 85%)	0 (Level 0: growth control rate is less than 5%)	0 (Level 0: growth control rate is less than 5%)	>5	Abutilon theophrasti (activity level) [1]: 5 (Level 5: growth control rate is above 85%); Digitaria sanguinahs (activity level) [2]: 5 (Level 5: growth control rate is above 85%); Setaria viridis (activity level) [10]: 5 (Level 5: growth control rate is above 85%)
COCC[S+]([O-])c1c(C(F)(F)F)ccc(C(=O)Nc2nnc(C)o2)c1F (racemic) [Compound 1-57]	5 (Level 5: growth control rate is above 85%)	5 (Level 5: growth control rate is above 85%)	5 (Level 5: growth control rate is above 85%)	0 (Level 0: growth control rate is less than 5%)						0 (Level 0: growth control rate is less than 5%)	0 (Level 0: growth control rate is less than 5%)	>5	Abutilion theophrasti (activity level) ([1]; Table 2, dose 500 g a.i./ha): 5 (Level 5: growth control rate is above 85%); Digitaria sanguinalis (activity level) ([2]; Table 2, dose 500 g a.i./ha): 5 (Level 5: growth control rate is above 85%); Echinochloa crusgah (activity level) ([3]; Table 2, dose 500 g a.i./ha): 5 (Level 5: growth control rate is above 85%); Amaranthus retroflexus (activity level) ([4]; Table 2, dose 500 g a.i./ha): 5 (Level 5: growth control rate is above 85%); Stellaria media (activity level) ([5]; Table 2, dose 500 g a.i./ha): 5 (Level 5: growth control rate is above 85%)
CC[S+]([O-])c1c(C(F)(F)F)ccc(C(=O)Nc2nnc(C)o2)c1F (stereo not shown) [Compound 1-5]	5 (Level 5: growth control rate is above 85%)	5 (Level 5: growth control rate is above 85%)	5 (Level 5: growth control rate is above 85%)	0 (Level 0: growth control rate is less than 5%)	5 (Level 5: growth control rate is above 85%)	5 (Level 5: growth control rate is above 85%)	5 (Level 5: growth control rate is above 85%)	5 (Level 5: growth control rate is above 85%)	5 (Level 5: growth control rate is above 85%)	0 (Level 0: growth control rate is less than 5%)	0 (Level 0: growth control rate is less than 5%)	>5	Abutilion theophrasti (activity level) ([1]; Table 2, dose 60 g a.i./ha): 5 (Level 5: growth control rate is above 85%); Abutilon theophrasti (activity level) [1]: 5 (Level 5: growth control rate is above 85%); Digitaria sanguinalis (activity level) ([2]; Table 2, dose 60 g a.i./ha): 5 (Level 5: growth control rate is above 85%); Digitaria sanguinahs (activity level) [2]: 5 (Level 5: growth control rate is above 85%); Echinochloa crusgah (activity level) ([3]; Table 2, dose 60 g a.i./ha): 5 (Level 5: growth control rate is above 85%); Echinochloa crusgali (activity level) ([3]; Table 3, dose 60 g a.i./ha): 5 (Level 5: growth control rate is above 85%); Setaria viridis (activity level) [10]: 5 (Level 5: growth control rate is above 85%); Amaranthus retroflexus (activity level) ([4]; Table 2, dose 60 g a.i./ha): 5 (Level 5: growth control rate is above 85%); Stellaria media (activity level) ([5]; Table 2, dose 60 g a.i./ha): 5 (Level 5: growth control rate is above 85%)
CCS(=O)(=O)c1c(C(F)(F)F)ccc(C(=O)Nc2nnc(C)o2)c1F [Compound 1-6]	5 (Level 5: growth control rate is above 85%)	5 (Level 5: growth control rate is above 85%)	5 (Level 5: growth control rate is above 85%)	0 (Level 0: growth control rate is less than 5%)	5 (Level 5: growth control rate is above 85%)	5 (Level 5: growth control rate is above 85%)	5 (Level 5: growth control rate is above 85%)	5 (Level 5: growth control rate is above 85%)	5 (Level 5: growth control rate is above 85%)	0 (Level 0: growth control rate is less than 5%)	0 (Level 0: growth control rate is less than 5%)	>5	Abutilion theophrasti (activity level) ([1]; Table 2, dose 250 g a.i./ha): 5 (Level 5: growth control rate is above 85%); Digitaria sanguinalis (activity level) ([2]; Table 2, dose 250 g a.i./ha): 5 (Level 5: growth control rate is above 85%); Echinochloa crusgah (activity level) ([3]; Table 2, dose 250 g a.i./ha): 5 (Level 5: growth control rate is above 85%); Amaranthus retroflexus (activity level) ([4]; Table 2, dose 250 g a.i./ha): 5 (Level 5: growth control rate is above 85%); Stellaria media (activity level) ([5]; Table 2, dose 250 g a.i./ha): 5 (Level 5: growth control rate is above 85%)
Cc1nnc(NC(=O)c2ccc(C(F)(F)F)c(SC3CC3)c2F)o1 [Compound 1-76]	5 (Level 5: growth control rate is above 85%)	5 (Level 5: growth control rate is above 85%)	5 (Level 5: growth control rate is above 85%)	0 (Level 0: growth control rate is less than 5%)									
COc1cnc(OC)n2nc(NS(=O)(=O)c3c(OCC(F)F)cccc3C(F)(F)F)nc12 [Penoxsulam, reference compound]													Echinochloa crusgali (activity level) ([6]; Table 8, 30 g a.i./ha): 0 (Level 0: growth control rate is less than 5%); Leptochloa chinensis (activity level) [14]: 1 (Level 1: growth control rate is greater than or equal to 5% and less than 20%); Monochoria vaginalis (activity level) ([7]; Table 8, 30 g a.i./ha): 1 (Level 1: growth control rate is greater than or equal to 5% and less than 20%); Sagittaria trifolia (activity level) [15]: 0 (Level 0: growth control rate is less than 5%); pest or weed control at 15 g/ha ([16]; 480 h, (ii) 1 g a.i./mu, stem-leaf treatment, read-out: Control effect of (ii) alone at corresponding dose): 66.4%; pest or weed control at 27 g/ha ([16]; 480 h, (ii) 1.8 g a.i./mu, read-out: Control effect of (ii) alone at corresponding dose): 80.2%; Control effect of (ii) alone at corresponding dose ([16]; (ii) 1 g a.i./mu): 66.4%
